Paper PMC3440242 (Peptides, 2012)
Where two headings read alike, the source gives them in different places. Blank lines part the entries; values can stand above or below the molecule they belong to.

Legend:
[1] = tested on: G-protein nucleotide sites (Gi3 α subunit); format: cell-based
Y2 receptor [2] = target: T1, Y2 receptor (Homo sapiens, UniProt P49146); test: Particulate Y2 agonist binding
T1 sequence (P49146 1-381): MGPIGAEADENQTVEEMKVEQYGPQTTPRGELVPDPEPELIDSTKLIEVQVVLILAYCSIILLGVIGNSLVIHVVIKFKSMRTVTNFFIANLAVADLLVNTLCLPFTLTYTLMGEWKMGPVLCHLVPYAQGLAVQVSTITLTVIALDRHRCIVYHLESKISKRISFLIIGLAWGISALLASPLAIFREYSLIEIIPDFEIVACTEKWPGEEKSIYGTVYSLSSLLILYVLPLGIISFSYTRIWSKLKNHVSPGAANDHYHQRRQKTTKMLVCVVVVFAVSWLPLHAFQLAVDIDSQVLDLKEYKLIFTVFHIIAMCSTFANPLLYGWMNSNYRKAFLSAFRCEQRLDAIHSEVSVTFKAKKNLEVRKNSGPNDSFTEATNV

CHO cells [3] = tested on: CHO cells
CHO cells [4] = test: Permeabilization of CHO cells; conditions: 20 min at 37 °C
Y2 receptor [5] = target: T1, Y2 receptor; conditions: read-out: ic50, [^125I] hPYY(3-36) binding to particulate Y2 receptor; cited from earlier work
guinea pig Y2 receptor = test: Unmasking of surface guinea pig Y2 receptor in adherent CHO cells; format: cell-based; conditions: 30 μM agent, 20 min at 37 °C, 50 pM [^125I] hPYY(3-36), at least three experiments
Y1 receptor = test: Agonist binding to surface Y1 receptor in CHO monolayers after unmasking agent; format: cell-based; conditions: 30 μM digitonin pretreatment, 20 min at 37 °C; 50 pM [^125I] hNPY
Y4 receptor = test: Agonist binding to surface Y4 receptor in CHO monolayers after unmasking agent; format: cell-based; conditions: 30 μM digitonin pretreatment, 20 min at 37 °C; 50 pM [^125I] hPP
[6] = stated without reference; cited from earlier work
hY2-CHO receptor [7] = test: Depletion of hY2-CHO surface receptors by agonists; format: cell-based, human; conditions: exponential + linear model, four experiments
hY2-CHO receptor [8] = conditions: read-out: Scatchard affinity / Kdiss, ref [37]; cited from earlier work
CHO cells [9] = test: Cell detachment, protein loss and lysis of CHO cells
CHO cells [10] = tested on: CHO cells; remark: listed apart in the source
[11] = target: G-protein nucleotide sites (Gi α subunits) (Cricetulus griseus, UniProt Q60397); test: ^35S-GTPγS binding to Y2-CHO particulates; conditions: Y2-CHO cells
Chain of G-protein nucleotide sites (Gi α subunits) (Q60397 2-354): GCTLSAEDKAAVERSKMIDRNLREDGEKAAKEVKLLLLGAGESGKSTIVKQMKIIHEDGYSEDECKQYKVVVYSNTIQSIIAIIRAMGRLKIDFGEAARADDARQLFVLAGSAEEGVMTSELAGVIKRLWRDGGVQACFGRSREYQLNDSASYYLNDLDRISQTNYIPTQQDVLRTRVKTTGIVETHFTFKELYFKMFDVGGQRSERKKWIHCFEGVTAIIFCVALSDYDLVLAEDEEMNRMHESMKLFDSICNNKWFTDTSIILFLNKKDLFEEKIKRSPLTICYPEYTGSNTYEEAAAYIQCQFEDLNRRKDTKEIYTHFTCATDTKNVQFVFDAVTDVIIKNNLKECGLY

Molecule: CCCCC[C@@H](O)[C@H]1C(=O)O[C@H](C)[C@@H](O)/C=C/C=C/C=C/C=C/C=C(\C)[C@@H](O)C[C@H](O)C[C@H](O)C[C@H](O)C[C@H](O)C[C@H](O)C[C@@H]1O [filipin III]
^35S-GTPγS binding to Y2-CHO cells (in words) [1]: highly variable
effect on particulate Y2 agonist binding (in words) (Y2 receptor [2]): no loss of either particulate or surface Y2 sites
IC50 (Y2 receptor [2]; read-out: ic50, agonist binding to Y2-CHO particulates): ~100 µM
concentration at which cell lysis starts (CHO cells [3]): about 10 μM
concentration at/above which cell detachment is found (CHO cells [3]): above 15 μM
loss of mainly cytosolic protein (CHO cells [3]): about 40%
concentration range inducing permeabilization (CHO cells [4]; filipin III): 0.6 to 3 µM

Molecule: pertussis toxin: toxin used at 1 ng/ml for 21 h
^35S-GTPγS binding to Y2-CHO cells (in words) [1]: highly sensitive to cell pretreatment with pertussis toxin

Molecule: CCN1C(=O)C=CC1=O [NEM, N-Ethylmaleimide]
IC50 (Y2 receptor [5]): 146 ± 14 µM

Molecule: C[C@@H]1CC[C@@]2(OC1)O[C@H]1[C@@H](O)[C@H]3[C@@H]4CC[C@H]5C[C@@H](O[C@@H]6O[C@H](CO)[C@H](O[C@@H]7O[C@H](CO)[C@@H](O)[C@H](O[C@@H]8OC[C@@H](O)[C@H](O)[C@H]8O)[C@H]7O[C@@H]7O[C@H](CO)[C@H](O)[C@H](O[C@@H]8O[C@H](CO)[C@@H](O)[C@H](O)[C@H]8O)[C@H]7O)[C@H](O)[C@H]6O)[C@H](O)C[C@]5(C)[C@H]4CC[C@]3(C)[C@H]1[C@@H]2C [digitonin]
increase of labeling of adherent confluent Y2-CHO cells (guinea pig Y2 receptor): about 4 fold
effect on Y1-CHO surface sites (Y1 receptor): did not increase the Y1-CHO or Y4-CHO surface sites
effect on Y4-CHO surface sites (Y4 receptor): did not increase the Y1-CHO or Y4-CHO surface sites
digitonin range in which ^35S-GTPγS binding saturates [1]: 3 to 30 µM
increase of ^35S-GTPγS binding to intact CHO cells [1]: 10-15 fold
concentration above which CHO cells and particulates are lysed (CHO cells [3]): above 1 mM
concentration above which protein leakage is observed (CHO cells [3]): above 30 μM
concentration at/above which cell detachment is found (CHO cells [3]): about 50 μM
critical micellar concentration [6]: ≥ 100 µM
concentration at which permeabilization reached a plateau (CHO cells [4]; judged by labeling by ^35S-GTPγS): 20 µM

% total depletion in component 1 (hY2-CHO receptor [7]; + 30 μM PAO): 15.6 ± 3.9%
K1 (exponential component) (hY2-CHO receptor [7]; + 30 μM PAO): 3.0 ± 0.75 nM
K2 (linear component) (hY2-CHO receptor [7]; + 30 μM PAO): 243 ± 15 nM
% total depletion in component 1 (hY2-CHO receptor [7]; without PAO): 32.8 ± 8.5 %
K1 (exponential component) (hY2-CHO receptor [7]; without PAO): 6.2 ± 1.6 nM
K2 (linear component) (hY2-CHO receptor [7]; without PAO): 153 ± 17 nM
Molecule: LRHYLNLLTRORY [AcLeu, human neuropeptide Y(24-36), acetyl-Leu(28, 31)]
Kd (hY2-CHO receptor [8]): 0.0005 µM

Molecule: C[N+](C)(C)CCSS(C)(=O)=O [MTSET, 2-[trimethylammonium)ethyl] methanethiosulfonate]
IC50 (Y2 receptor [5]): 264 ± 27 µM

Molecule: C[C@H](CCC(=O)NCCC[N+](C)(C)CCCS(=O)(=O)[O-])[C@H]1CC[C@H]2[C@@H]3[C@H](O)C[C@@H]4C[C@H](O)CC[C@]4(C)[C@H]3C[C@H](O)[C@]12C [CHAPS, 3-[(3-Cholamidopropyl)dimethylammonio]-1-propanesulfonate]
concentration above which CHO cells and particulates are lysed (CHO cells [9]): above 1 mM

permeabilization of CHO cells (in words) (CHO cells [10]): did not permeabilize CHO cells at 100 μM
Molecule: polyoxyethylene(20)sorbitan monooleate [Tween 80]

Molecule: Nc1nc2c(ncn2[C@@H]2O[C@H](COP(=O)(O)OP(=O)(O)OP(O)(O)=S)[C@@H](O)[C@H]2O)c(=O)[nH]1 [^35S-GTPγS, guanosine 5′-O-(3-thiotriphosphate]
total particulate nucleotide sites [11]: 32 ± 0.7 fmol/100,000 cells

Molecule: C[C@H](CCC(=O)O)[C@H]1CC[C@H]2[C@@H]3[C@H](O)C[C@@H]4C[C@H](O)CC[C@]4(C)[C@H]3C[C@H](O)[C@]12C [cholate]
permeabilization of CHO cells (in words) (CHO cells [10]): did not permeabilize CHO cells at 100 μM
concentration above which CHO cells and particulates are lysed (CHO cells [3]): above 1 mM
